Patent US6025333A, “Treatment of CNS tumors with metalloprotease inhibitors” (Erziehungsdirektion of the Canton Zurich, priority 1995, dated 2000)
Where two headings read alike, the source gives them in different places. Values belong to the molecule of their own block, whether it stands above or below them. Peptide text beside a SMILES is read from it. * marks the point of attachment. Cbz = O=C(OCc1ccccc1)*

Tests used:
C6 cells [1] = assay: C6 cell spreading on PLYS or CNS myelin with protease inhibitors; type: cell-based, rat; settings: for activity at 300 µM: C6, 2.5 h
Method: Rat C6, mouse NIH 3T3 and B16 cells were cultured in Dulbecco's modified Eagle's medium (DMEM) supplemented with 10% fetal calf serum (FCS), usually to maximally 70-80% confluency. Cells were harvested with a short trypsin treatment (0.1% in Ca^2+ /Mg^2+ -free Hank's medium for 90 seconds) stopped by addition of FCS in excess, collected by centrifugation. Cells were resuspended in either DMEM/FCS or defined serum-free medium (MEM) and used for experiments. Dissociated rat CNS glial cells were prepared starting from optic nerves of 6-7 days old Lewis rats as described in Section 6.1.1, supra and plated into poly-D-lysine (PLYS) coated wells (100 mm^2, 100 μl medium) at a density of 20,000 cells per well. The culture medium was an enriched L15 medium with 5% rat serum, penicillin and streptomycin. C6, 3T3 and B16 cells were added to 2 day old cultures at a concentration of 30,000 cells per well, incubated for two hours and fixed with warm 4% formalin in phosphate buffer. Inhibitory oligodendrocytes were identified by double labelling using the specific antibodies O1 and O4 (see Section 6.1.3, supra).
(§1) Myelin from rat spinal cord (CNS) or sciatic nerve (PNS) purified on a discontinuous sucrose gradient as described in Section 6.1.5., was dried overnight onto PLYS coated wells (20 μg protein/well of 100 mm^2 surface). Unbound membranes were removed by three washes with Ca^2+ /Mg^2+ -free Hank's solution. Myelin coated wells were immediately used in substrate testing assays by the addition of 9,000 cells (C6, 3T3, or B16) per cm^2. Alternatively, we used extracted CNS myelin protein, or SDS-PAGE purified 35 and 250 kD inhibitory proteins reconstituted in liposomes (see Section 7.1.5, supra). Experiments were scored at different time points using a phase contrast microscope equipped with a photocamera. Quantifications were done using a surface integration program; three arbitrary fields were photographed for each well at a magnitude of 80×, at least 25 cells per picture were measured. Each point represents the mean of at least 3 wells±SEM. Results are expressed as μ^2 of projected cell surface, or as degree, which was calculated by subtracting from the projected surface value of a spreading cell, the surface value of a completely spheric cell.

C6 cells [2] = assay: C6 cell attachment and spreading on rat cerebellar frozen sections; type: cell-based; settings: 1,10-phenanthroline 50, 100, 200 and 300 μM; cbz-tyr-tyr 100 μM
Method: Adult rat cerebellum frozen sections were prepared and dried on glass coverslips. 70,000 C6, 3T3, or B16 cells in 100 μl were added to each well containing slices previously rinsed with cold DMEM/FCS. Cultures were incubated for 2 days at 37° C. Cultures were then fixed and stained with cresyl violet. Three to four cerebellum slices were used per point per experiment, with each experiment being repeated at least 2 times.

C6 cells [3] = assay: C6 cell infiltration into optic nerve explants; type: cell-based, rat; settings: nerves injected with 4 μl of 3 mM solution; medium 0.5 mM peptide; 14 days
Method: Optic nerve and sciatic nerve explants were prepared as described (Schwab and Thoenen, 1985, J. Neurosci. 5:2415-2423). Briefly, the nerves were rapidly dissected from about 8 week old male rats, cleaned from the meninges, 3 times frozen and thawed using liquid nitrogen, and placed under a teflon ring (diameter 13 mm, thickness 1 mm) sealed to a culture dish with silicon grease. Two chambers connected only by the explants were in this way obtained. 300,000 C6, 3T3 or B16 cells were plated in the inner chamber in DMEM/FCS and incubated for 5 to 20 days. The medium was changed every other day. Cultures were fixed overnight with 4% formalin. The nerve explants were mounted with Tissue-Tek, 10 to 15 μm sections were cut in a cryostate and collected on gelatine coated cover slips. After drying at room temperature overnight, the sections were stained in 0.75% cresyl violet, and evaluated. The infiltrated cells were counted for each 0.1 mm of the explants, starting from the tip where cells were added. Due to the 15 day incubation, the explants were often different in diameter. Therefore, only the central part of the nerves (0.25 mm) were considered, since only this part of the explants presented a good histological quality. Inhibition experiments were performed with nerve explants previously injected from both sides with 2 μl of 3 mM cbz-tyr-tyr or cbz-ala-phe solutions.

C6 cells [4] = assay: C6 cell spreading on CNS myelin protein liposomes, antibody and/or 1,10-phenanthroline; type: cell-based, rat; settings: 0.3 mM 1,10-phenanthroline
Method: Substrates were tested as described in Section 7.1.2 supra). Myelin fractions or liposomes in medium A were dried onto the wells of polylysine-coated Greiner dishes (Greiner, Murtingen, FRG). […] When substrates were tested in the presence of antibody, bound substrates were incubated in the presence of undiluted hybridoma supernatants or in the presence of 1:30 dilutions (in Hank's medium) of antisera. After 15 minutes at 37° C., four-fifths of the antibody-containing medium was removed and substituted with cell-containing medium. An analogous preincubation procedure was used in experiments aimed at testing HBO nonpermissiveness. 3T3 experiments were usually scored after a culture period of 1 hour, whereas SCG neurons were allowed to grow processes for 24 hours in culture. When 3T3 cells were preincubated with hybridoma supernatant, incubations were performed in gently agitated suspensions for a period of 15 minutes at room temperature. Cells were then sedimented, resuspended in culture medium, and added to substrate-adsorbed Greiner dish wells. 3T3 cells were added at a density of 30,000 cells per cm^2, and SCG neurons were added at a density of 20,000 cells per cm^2.
as §1, with “Myelin coated wells were immediately used in substrate testing assays by the addition of 9,000 cells (C6, 3T3, or B16) per cm^2. Alternatively, we used extracted CNS myelin protein, or SDS-PAGE purified 35 and 250 kD inhibitory proteins reconstituted in liposomes (see Section 7.1.5, supra).” left out, “Each point represents the mean of at least 3 wells±SEM.” left out

3T3 cells = assay: Treatment of CNS myelin with C6 plasma membranes, then 3T3 spreading and 3H-thymidine incorporation; type: cell-based, mouse
Method: as §1
C6 cells grown to 80% confluency were washed twice with Hank's medium, and harvested in 20 ml 8.5% sucrose, 50 mM NaCl, 10 mM Tris buffer, pH 7.4, using a rubber policeman. After mechanical homogenization through a series of needles of decreasing size, a low purity plasma membrane fraction was obtained by centrifugation (5 minutes at 3000× g, 10 minutes at 8000× g, and then 2 hours at 100,000× g). A higher purity fraction was isolated by loading the material on a discontinuous sucrose gradient, containing 50 mM NaCl, 10 mM Tris, pH 7.4 (Quigley, 1976, J. Cell Biol. 71: 472-486). 20-40% sucrose interphase (C6 plasma membranes fraction) and 40-60% sucrose interphase (C6 mitochondrial fraction) were collected, washed in Hank's medium and resuspended in MEM.
CNS myelin coated PLYS wells were prepared as described in the previous section, but instead of being immediately tested as substrate, they were first incubated with 50 μl of C6 plasma membranes (containing 0.8 mg protein/ml MEM) at 37° for 30 minutes. Dishes were then rinsed twice with Hank's medium and immediately used as substrates for 3T3 cells. In some experiments, protease blockers were added to the membranes using 10 times concentrated solutions.

Compound: O=C(N[C@@H](Cc1ccc(O)cc1)C(=O)N[C@@H](Cc1ccc(O)cc1)C(=O)O)OCc1ccccc1 [cbz-tyr-tyr, carbobenzoxy-tryosine-tyrosine] (Cbz-Tyr-Tyr-OH)
Spreading on: PLYS (% of control on PLYS) (C6 cells [1]; inhibitor 0.3 mM, 150 minutes): 101 % of control on PLYS
Spreading on: CNS (% of control on PLYS) (C6 cells [1]; inhibitor 0.3 mM, CNS myelin, 150 minutes): 56 % of control on PLYS
Inhibition on CNS (%) (C6 cells [1]; inhibitor 0.3 mM, PLYS value minus CNS myelin value): 45%
distribution and behavior of C6 cells on white matter of cerebellar frozen sections (C6 cells [2]): dramatically changed the distribution and behavior of C6 cells on the white matter areas
C6 cell infiltration into optic nerve explants (C6 cells [3]): inhibited C6 cell infiltration in all the 8 nerves examined

IC50 (C6 cells [1]; Rattus norvegicus, C6 cells on CNS myelin, 3 hours (FIG. 22), read-out: Half maximal inhibition of C6 spreading on CNS myelin (IC50)): 200 µM
Compound: c1cnc2c(c1)ccc1cccnc12 [1,10-phenanthroline]
inhibition of C6 cell spreading on CNS myelin (C6 cells [1]): up to 67%
concentrations exerting a general toxic effect on all substrates (C6 cells [1]; C6 cells, 3 hours, FIG. 22): above 0.5 mM
activity at 300 µM (C6 cells [1]; Rattus norvegicus, inhibitor 0.3 mM, 150 minutes, read-out: Spreading on: PLYS (% of control on PLYS)): 97%
activity at 300 µM (C6 cells [1]; Rattus norvegicus, inhibitor 0.3 mM, CNS myelin, 150 minutes, read-out: Spreading on: CNS (% of control on PLYS)): 30%
inhibition at 300 µM (C6 cells [1]; Rattus norvegicus, C6, inhibitor 0.3 mM, PLYS value minus CNS myelin value): 67%
effect on C6 cell spreading on PLYS, glass and PNS myelin (C6 cells [1]; concentrations up to 0.5 mM): did not impair C6 cell spreading
spreading value on: CNS lipos. (C6 cells [4]; substrate preadsorbed with the named antibody or none, 150 minutes): 1.35 μm^2 10^3
spreading value on: PLYS (C6 cells [4]; with the named antibody or none, 150 minutes): 2.49 μm^2 10^3
% inhibition on CNS lipos. (C6 cells [4]; with the named antibody or none, relates to PLYS): 46%
3T3 Cell Spreading (%) (3T3 cells; 3T3 on CNS myelin, alone or preincubated with C6 PM without/with the named inhibitor, 150 minutes, PLYS = 100): 17%
3H-Thymidine Incorporation (%) (3T3 cells; 3T3 on CNS myelin, alone or preincubated with C6 PM without/with the named inhibitor, 20 hours, PLYS = 100): 50%
effect on the C6 plasma membrane effect (neutralization of CNS myelin inhibitory activity) (3T3 cells; blockers added to C6 plasma membranes): completely blocked
distribution and behavior of C6 cells on white matter of cerebellar frozen sections (C6 cells [2]): dramatically changed the distribution and behavior of C6 cells on the white matter areas
